# According to patent US6781000B1, “Alpha-ketoamide inhibitors of 20S proteasome” (CV Theurapeutics, Inc., priority 1998, dated 2004):
# Assays:
# [1] = target: T1, chymotrypsin-like activity of 20S proteasome (Bos taurus, UniProt Q2TBX6+Q32KL2); assay: 20S proteasome chymotryptic activity inhibition assay (Suc-Leu-Leu-Val-Tyr-AMC cleavage); type: biochemical; details: 2 μg 20S proteasome from bovine brain, 50 μM fluorogenic substrate, 15 minutes at 37° C., pH7.5
# T1 construct: was purified to homogeneity from bovine brain according to published methods; from tissue; host or cells: bovine brain
# Method in brief: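 Bovine brain 20S proteasome (2 μg) with inhibitor at 0.1-100 μg/ml in 50 mM HEPES, 0.1% SDS, pH7.5. Reaction started with 50 μM Suc-LLVY-AMC, run 15 min at 37° C, stopped with pH 4.0 acetate; liberated AMC read by fluorescence (EX 370 nm, EM 430 nm).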
# [2] = target: T2, peptidylglutamyl activity of 20S proteasome (Bos taurus, UniProt Q2TBP0+Q3MHN0); assay: 20S proteasome peptidylglutamyl activity inhibition assay (CBZ-D-Ala-Leu-Glu-AMC cleavage); type: biochemical; details: Example 6: 2 μg 20S proteasome from bovine brain, substrate CBZ D-Ala-Leu-Glu-AMC, 15 minutes at 37° C.
# T2 construct: was purified to homogeneity from bovine brain according to published methods; from tissue; host or cells: bovine brain
# Protocol: Compounds of this invention prepared according to the method of Example 1 were also tested as follows. The 20S catalytic subunit of the proteasome (also known as the multicatalytic proteinase complex) was purified to homogeneity from bovine brain according to published methods (Wilk S. and Orlowski, M. 1983, 40 842 J. Neurochem). […] of the complex is measured by the increase in fluorescence following cleavage of the substrate peptide CBZ D-Ala-Leu-Glu-(7-amino-4-methyl coumarin). The standard in vitro assay consists of 2 μg 20S proteasome, 0.1-100 μg/ml proteasome inhibitor in […] 50 mM HEPES, containing 0.1% sodium dodecyl sulphate, pH 7.5. The proteolytic reaction is initiated by the addition of […] fluorogenic peptide substrate and allowed to progress for 15 minutes at 37° C. The reaction is terminated by the addition of […] 100 mM acetate buffer, pH 4.0. The rate of proteolysis is directly proportional to the amount of liberated aminomethylcoumarin which is measured by fluorescent spectroscopy (EX 370 nm, EM 430 nm). Compounds 1-207 were tested for peptidylglutamyl activity inhibition at >10 μg/mL. Compound 190 was active at 5 μg/mL.
smiles,measurement,setting,value
CC(C)CC(NC(=O)C(Cc1ccc(-c2ccccc2)cc1)NC(=O)C(=O)Cc1c[nH]c2ccccc12)C(=O)NC(Cc1c[nH]cn1)C(=O)O (centres unmarked) [Compound 190],IC50 for the inhibition of the chymotrypsin-like activity of 20S proteasome,[1],3 µg/mL
same,"peptidylglutamyl activity inhibition, active at",[2],5 µg/mL
